US10159717B2, “Methods of treating cancer of the central nervous system” (Yeda Research and Development Co. Ltd., priority 2008, dated 2018)

Experiments:
C6 glioma = C6 glioma implanted in rat striatum, tumor growth followed by MRI; format: in vivo; conditions: 0.2M oxaloacetate in drinking water from day 7, MRI 10 days later, in average
Procedure: Male SPD&OLD rats weighing 260-280 g were used and placed in individual cages. All experiments were conducted according to the guidelines of the institutional animal care and use committee of the Weizmann Institute of Science, Rehovot, Israel.
Rat C6 glioma cells were grown in DMEM medium supplemented with 10% FCS. 10^7 cells were plated on 100×20 mm dishes and grown to 80% confluence for two days, passaged at a dilution of 1:10 after 1-2 min exposure to 0.25% trypsin and plated on 7 plates 60×15 mm. The cells were grown to 80% confluence for two additional days. The cells were then trypsynized as above, washed once with sterile PBS and centrifuged for 15 min at 1200 rpm. Prior to centrifugation, the cells were counted in a hemocytometer. Following centrifugation, the medium was removed and the cells were diluted in sterile PBS to a final concentration […] was injected immediately intracranially. For that purpose, the rats were anesthetized with 1.5% Halothane and placed in a stereotactic apparatus. […]
Experiments on live animals were conducted on a Bio spec Avance™ system (Bruker Biospin, Ettlingen, Germany) with a 4.7 T 30-cm horizontal bore magnet. […] The volume of the tumor was assessed using the Surdriver program.
After establishing that oxaloacetate has no effect on glioma growth when grown under in vitro conditions, the effect of same in vivo was determined. […]

[1] = Stability of oxaloacetate solutions; format: physicochemical; conditions: cell culture medium
Procedure: To test the effect of oxaloacetate (OA) on glioma cells in vitro, C6 glioma cells were incubated with 1 mM oxaloacetate. Since oxaloacetate solutions are unstable, the cell culture medium was changed every day to allow the cells to be daily exposed to a fresh oxaloacetate solution.

In the case of O=C(O)CC(=O)C(=O)O [oxaloacetate], the “Tumor spread, less than that of untreated animals that received drinking water only” value (C6 glioma) is reported as “at least 10 folds” and the stability of solutions [1] is reported as “unstable”.
